Structures can show the parent of a compound that is named as a salt.

The results in this text go back to patent publication US20130172271A1, “Pharmaceutical Spray Drying” (priority 2012, published 2013).

Data set [1] is described as follows: Stability testing of spray dried vancomycin batch stored at 25° C./60% RH, 30° C./60% RH and 40° C./75% RH. To be noted: Initial. The data set is classed as physicochemical. The protocol: (§1) Batches for stability testing were made using the spray dried formulation vancomycin HCl (15% by weight), PEG-400 (3% by weight), mannitol (3% by weight) in WFI, with the API sourced from Abbott Laboratories (North Chicago, Ill.). Spray dried batches were stored at 25° C./60% Relative Humidity (RH), 30° C./60% RH, and 40° C./75% RH for three months. The stability data on moisture by Karl Fischer, pH (of the reconstituted solution), reconstitution time and chromatographic purity are presented in Table 7. The chromatographic purity was examined using the analytical HPLC method described in the current USP (United States Pharmacopeia) monograph for vancomycin. The test results for the API lot used to make the spray dried product were also listed for comparison.
The chromatographic purity of vancomycin B for all samples tested in this study were within USP specifications. All samples were stored at the accelerated conditions of 40° C./75% RH for 3 months and met USP criterion for vancomycin B by chromatographic purity (NLT 80% vancomycin B).

The nature of data set [2]: Chromatographic purity / impurities of spray dried vancomycin powders (Vancomycin B). Type of data set: physicochemical. The method, then:
as §1
Three vancomycin formulations were prepared in WFI or citrate buffer. The solutions were spray dried as described above. Resultant powders were tested along with the vancomycin HCl API for impurities, reconstitution time and moisture as shown in Table 8.

With `CN[C@H](CC(C)C)C(=O)N[C@H]1C(=O)N[C@@H](CC(N)=O)C(=O)N[C@H]2C(=O)N[C@H]3C(=O)N[C@H](C(=O)N[C@H](C(=O)O)c4cc(O)cc(O)c4-c4cc3ccc4O)[C@H](O)c3ccc(c(Cl)c3)Oc3cc2cc(c3O[C@@H]2O[C@H](CO)[C@@H](O)[C@H](O)[C@H]2O[C@H]2C[C@](C)(N)[C@H](O)[C@H](C)O2)Oc2ccc(cc2Cl)[C@H]1O` [API Lot 09097619, vancomycin HCl], the “Vancomycin B” value in data set [1] was determined as 91.9%.
As for `CN[C@H](CC(C)C)C(=O)N[C@H]1C(=O)N[C@@H](CC(N)=O)C(=O)N[C@H]2C(=O)N[C@H]3C(=O)N[C@H](C(=O)N[C@H](C(=O)O)c4cc(O)cc(O)c4-c4cc3ccc4O)[C@H](O)c3ccc(c(Cl)c3)Oc3cc2cc(c3O[C@@H]2O[C@H](CO)[C@@H](O)[C@H](O)[C@H]2O[C@H]2C[C@](C)(N)[C@H](O)[C@H](C)O2)Oc2ccc(cc2Cl)[C@H]1O` [API, vancomycin HCl], in data set [2] (Table 8), the N-Demethylvancomycin is recorded as 0.6% and the “Vancomycin B” value stood at 94.9%. The Other in data set [2] (Table 8, other impurities) is 4.5%.
